In US20160120863A1, “SLC2A TRANSPORTER INHIBITORS” (IOMET PHARMA LTD., priority 2013, published 2016):

Experiments:
Format in all cases: cell-based
human GLUT3 = biological target: T1, human GLUT3 (Homo sapiens, UniProt P11169); test: [3H]-deoxy-D-glucose uptake assay, GLUT3; settings: [3H]-deoxy-D-glucose uptake in HEK293 cells stably expressing human GLUT3
T1 construct: expressed in transfected cells
T1 sequence (P11169 1-496): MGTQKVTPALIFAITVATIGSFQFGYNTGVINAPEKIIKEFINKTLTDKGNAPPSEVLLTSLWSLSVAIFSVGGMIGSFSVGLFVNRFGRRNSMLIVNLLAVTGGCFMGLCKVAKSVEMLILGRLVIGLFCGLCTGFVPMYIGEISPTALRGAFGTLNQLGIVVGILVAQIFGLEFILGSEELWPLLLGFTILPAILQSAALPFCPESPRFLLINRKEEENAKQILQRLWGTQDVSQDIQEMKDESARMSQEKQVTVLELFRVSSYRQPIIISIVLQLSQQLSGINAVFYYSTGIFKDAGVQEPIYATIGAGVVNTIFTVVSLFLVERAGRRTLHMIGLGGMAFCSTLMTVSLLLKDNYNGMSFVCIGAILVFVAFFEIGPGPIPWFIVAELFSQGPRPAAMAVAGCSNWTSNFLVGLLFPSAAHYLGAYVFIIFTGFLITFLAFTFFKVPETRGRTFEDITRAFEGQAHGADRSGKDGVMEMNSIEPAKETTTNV
Method: (§1) HEK293 cells were engineered to stably express either human GLUT1, GLUT2, GLUt3 or GLUT4 by transfection with the pReceiver-Lv105 plasmid, containing either hGLUT1, hGLUT2, hGLUT3, or hGLUT4 gene constructs with lipofectamine 2000, hGLUT1- hGLUT2- hGLUT3- or hGLUT4-overexpressing polyclonal populations were isolated under purinomycin selective pressure (1 μg/ml) and maintained in Dulbecco's modified Eagle's medium supplemented with 1 μg/ml purinomycin+10% foetal bovine serum (FBS).
(§2) 60,000 cells per well were seeded overnight into poly-D-lysine coasted 96-well plates. Following media removal, cells were washed twice in warm glucose-free uptake buffer (25 mM HEPES/KOH pH 7.4, 125 mM NaCl, 4.8 mM KCl, 1.2 mM MgSO4, 1.2 mM CaCl2, 1.2 mM KH2PO4). 90 μl of test compounds were added in glucose-free uptake buffer and cells were incubated at 37° C. for 30 min. 10 μl of [3H]-deoxy-D-glucose (0.25 μCi, 125 μM final assay concentration) was then added per well in glucose-free uptake buffer and uptake was allowed to proceed at 37° C. for 30 min.
(§3) Cells were then washed twice with ice-cold PBS and 100 μl of Microscint-20 was added per well. Glucose uptake was quantified with a scintillation counter. The half maximal inhibitory concentration (IC50) (a measure of the effectiveness of the test compound in inhibiting glucose uptake) was determined.

human GLUT4 = biological target: T2, human GLUT4 (Homo sapiens, UniProt P14672); test: [3H]-deoxy-D-glucose uptake assay, GLUT4; settings: [3H]-deoxy-D-glucose uptake in HEK293 cells stably expressing human GLUT4
T2 construct: expressed in transfected cells
T2 sequence (P14672 1-509): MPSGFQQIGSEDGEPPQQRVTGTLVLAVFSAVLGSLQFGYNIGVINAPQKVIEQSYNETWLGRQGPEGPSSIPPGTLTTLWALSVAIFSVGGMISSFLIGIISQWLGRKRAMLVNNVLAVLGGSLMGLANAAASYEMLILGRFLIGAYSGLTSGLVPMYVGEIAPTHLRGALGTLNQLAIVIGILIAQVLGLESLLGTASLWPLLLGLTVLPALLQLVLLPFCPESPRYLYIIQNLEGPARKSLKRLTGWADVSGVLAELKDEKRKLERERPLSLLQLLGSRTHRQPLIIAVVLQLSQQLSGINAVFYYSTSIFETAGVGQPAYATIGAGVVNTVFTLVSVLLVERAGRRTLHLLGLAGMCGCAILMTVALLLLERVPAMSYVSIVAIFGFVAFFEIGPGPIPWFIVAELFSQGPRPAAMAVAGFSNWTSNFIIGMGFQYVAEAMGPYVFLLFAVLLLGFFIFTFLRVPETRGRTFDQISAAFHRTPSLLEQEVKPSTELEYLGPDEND
Method: as §1, §2, §3

human GLUT2 = biological target: T3, human GLUT2 (Homo sapiens, UniProt P11168); test: [3H]-deoxy-D-glucose uptake assay, GLUT2; settings: [3H]-deoxy-D-glucose uptake in HEK293 cells stably expressing human GLUT2
T3 construct: expressed in transfected cells
T3 sequence (P11168 1-524): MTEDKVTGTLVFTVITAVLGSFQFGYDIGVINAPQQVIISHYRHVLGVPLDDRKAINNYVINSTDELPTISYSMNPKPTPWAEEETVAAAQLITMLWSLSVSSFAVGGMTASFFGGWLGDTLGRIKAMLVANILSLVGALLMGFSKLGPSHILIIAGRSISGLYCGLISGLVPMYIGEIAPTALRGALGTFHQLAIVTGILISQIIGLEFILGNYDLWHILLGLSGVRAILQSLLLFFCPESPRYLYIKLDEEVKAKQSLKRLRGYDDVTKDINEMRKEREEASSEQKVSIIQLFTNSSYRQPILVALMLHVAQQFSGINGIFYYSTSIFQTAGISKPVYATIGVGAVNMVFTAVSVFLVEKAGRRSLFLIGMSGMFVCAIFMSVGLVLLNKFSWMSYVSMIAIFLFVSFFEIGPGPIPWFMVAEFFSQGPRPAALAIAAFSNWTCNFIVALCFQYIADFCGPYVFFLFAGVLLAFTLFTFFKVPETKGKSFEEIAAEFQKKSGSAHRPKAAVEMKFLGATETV
Summary of the method: (§4)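 HEK293 cells stably overexpressing human GLUT1 or GLUT2, seeded at 60,000 per well, treated with compounds in glucose-free uptake buffer for 30 min at 37 °C. [3H]-deoxy-D-glucose uptake quantified by scintillation counting after ice-cold PBS washes; IC50 determined.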

human GLUT1 = biological target: T4, human GLUT1 (Homo sapiens, UniProt P11166); test: [3H]-deoxy-D-glucose uptake assay, GLUT1; settings: [3H]-deoxy-D-glucose uptake in HEK293 cells stably expressing human GLUT1
T4 construct: expressed in transfected cells
T4 sequence (P11166 1-492): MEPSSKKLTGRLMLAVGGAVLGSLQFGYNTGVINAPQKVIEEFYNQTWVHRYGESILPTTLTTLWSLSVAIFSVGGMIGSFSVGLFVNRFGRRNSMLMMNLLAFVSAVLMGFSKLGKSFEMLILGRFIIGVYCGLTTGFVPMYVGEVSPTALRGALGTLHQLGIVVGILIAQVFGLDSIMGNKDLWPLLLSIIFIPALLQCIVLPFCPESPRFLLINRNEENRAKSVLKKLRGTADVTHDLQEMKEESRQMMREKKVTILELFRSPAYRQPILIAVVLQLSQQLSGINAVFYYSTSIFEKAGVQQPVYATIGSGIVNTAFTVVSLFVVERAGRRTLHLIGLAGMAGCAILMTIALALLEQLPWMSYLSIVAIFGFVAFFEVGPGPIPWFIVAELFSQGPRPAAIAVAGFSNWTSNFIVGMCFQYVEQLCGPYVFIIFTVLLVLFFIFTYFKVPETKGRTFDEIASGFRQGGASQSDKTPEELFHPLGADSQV
Summary of the method: as §4

Compound | GLUT3 pIC50 (human GLUT3) | GLUT4 pIC50 (human GLUT4) | GLUT2 pIC50 (human GLUT2) | GLUT1 pIC50 (human GLUT1)
CN(c1ccc2nc(-c3ccc(Cl)cc3Cl)c(CN3CCn4ncnc4C3)n2c1)S(C)(=O)=O [Compound 346] | +++ (pIC50 ≧ 6.00) | +++ (pIC50 ≧ 6.00) | ++ (pIC50 5.00-5.99) | +++ (pIC50 ≧ 6.00)
CC(=O)N1CCN(Cc2c(-c3ccc(Cl)cc3)nc3ccc(S(=O)(=O)N(C)C)cn23)CC1 [Compound 350] | +++ (pIC50 ≧ 6.00) | +++ (pIC50 ≧ 6.00) | ++ (pIC50 5.00-5.99) | +++ (pIC50 ≧ 6.00)
CNS(=O)(=O)c1ccc2nc(-c3ccc(Cl)cc3)c(CN3CCN(C(C)=O)CC3)n2c1 [Compound 351] | +++ (pIC50 ≧ 6.00) | +++ (pIC50 ≧ 6.00) | ++ (pIC50 5.00-5.99) | +++ (pIC50 ≧ 6.00)
CCN(c1ccc2nc(-c3ccc(Cl)cc3)c(CN3CCN(C(C)=O)CC3)n2c1)S(C)(=O)=O [Compound 353] | +++ (pIC50 ≧ 6.00) | +++ (pIC50 ≧ 6.00) | ++ (pIC50 5.00-5.99) | +++ (pIC50 ≧ 6.00)
CN(c1ccc2nc(-c3ccc(Cl)cc3Cl)c(CN3CCNC(=O)C3)n2c1)S(C)(=O)=O [Compound 355] | +++ (pIC50 ≧ 6.00) | +++ (pIC50 ≧ 6.00) | +++ (pIC50 ≧ 6.00) | +++ (pIC50 ≧ 6.00)
CS(=O)(=O)Nc1ccc2nc(-c3ccc(Cl)cc3Cl)c(CN3CCN(C(=O)c4ccnnc4)CC3)n2c1 [Compound 356] | +++ (pIC50 ≧ 6.00) | +++ (pIC50 ≧ 6.00) | +++ (pIC50 ≧ 6.00) | +++ (pIC50 ≧ 6.00)
CS(=O)(=O)Nc1ccc2nc(-c3ccc(Cl)cc3Cl)c(CN3CCN(C(=O)c4ccc(F)cc4)CC3)n2c1 [Compound 360] | +++ (pIC50 ≧ 6.00) | +++ (pIC50 ≧ 6.00) | ++ (pIC50 5.00-5.99) | +++ (pIC50 ≧ 6.00)
CC(C)(O)C(=O)N1CCN(Cc2c(-c3ccc(Cl)cc3Cl)nc3ccc(NS(C)(=O)=O)cn23)CC1 [Compound 361] | +++ (pIC50 ≧ 6.00) | +++ (pIC50 ≧ 6.00) | ++ (pIC50 5.00-5.99) | +++ (pIC50 ≧ 6.00)
CN(c1ccc2nc(-c3ccc(Cl)cc3Cl)c(CN3CCN(C(=O)c4ccc(F)cc4)CC3)n2c1)S(C)(=O)=O [Compound 363] | +++ (pIC50 ≧ 6.00) | +++ (pIC50 ≧ 6.00) | +++ (pIC50 ≧ 6.00) | +++ (pIC50 ≧ 6.00)
CC(=O)N1CCN(Cc2c(-c3ccc(Cl)cc3)nc3ccc(N(C(C)C)S(C)(=O)=O)cn23)CC1 [Compound 365] | +++ (pIC50 ≧ 6.00) | +++ (pIC50 ≧ 6.00) | ++ (pIC50 5.00-5.99) | +++ (pIC50 ≧ 6.00)
CC(C)c1cn2c(CN3CCOCC3)c(-c3ccc(Cl)cc3Cl)nc2cn1 [Compound 366] | +++ (pIC50 ≧ 6.00) | +++ (pIC50 ≧ 6.00) | +++ (pIC50 ≧ 6.00) | +++ (pIC50 ≧ 6.00)
CC(=O)N1CCN(Cc2c(-c3ccc(Cl)cc3Cl)nc3ccc(N(C(F)F)S(C)(=O)=O)cn23)CC1 [Compound 367] | +++ (pIC50 ≧ 6.00) | +++ (pIC50 ≧ 6.00) | +++ (pIC50 ≧ 6.00) | +++ (pIC50 ≧ 6.00)
CC(=O)N1CCN(Cc2c(-c3ccc(Cl)cc3)nc3ccc(N(C(F)F)S(C)(=O)=O)cn23)CC1 [Compound 368] | +++ (pIC50 ≧ 6.00) | +++ (pIC50 ≧ 6.00) | +++ (pIC50 ≧ 6.00) | +++ (pIC50 ≧ 6.00)
Cn1cc(C(=O)N2CCN(Cc3c(-c4ccc(Cl)cc4Cl)nc4ccc(NS(C)(=O)=O)cn34)CC2)cn1 [Compound 369] | +++ (pIC50 ≧ 6.00) | +++ (pIC50 ≧ 6.00) | ++ (pIC50 5.00-5.99) | +++ (pIC50 ≧ 6.00)
